Laboratory results: patent US20220072015A1, “Methods of Inhibiting Pathological Angiogenesis” (Unity Biotechnology, Inc., priority 2017, published 2022)

How the values were obtained:
Bcl isoforms = test: Binding affinity for the Bcl isoforms; details: result in words
Excerpt: The ability of candidate compounds to inhibit Bcl-2 and Bcl-xL activity can be measured on the molecular level by direct binding. This assay uses a homogenous assay technology based on oxygen channeling that is marketed by PerkinElmer Inc., Waltham, Mass.: see Eglin et al., Current Chemical Genomics, 2008, 1, 2-10. The test compound is combined with the target Bcl protein and a peptide representing the corresponding cognate ligand, labeled with biotin. The mixture is then combined with streptavidin bearing luminescent donor beads and luminescent acceptor beads, which proportionally reduces luminescence if the compound has inhibited the peptide from binding to the Bcl protein.
Bcl-2, Bcl-xL and Bcl-w are available from Sigma-Aldrich Co., St. Louis, Mo. Biotinylated BIM peptide (ligand for Bcl-2) and BAD peptide (ligand for Bcl-xL) are described in US 2016/0038503 A1. AlphaScreen® Streptavidin donor beads and Anti-6×His AlphaLISA® acceptor beads are available from PerkinElmer.
To conduct the assay, a 1:4 dilution series of the compound is prepared in DMSO, and then diluted 1:100 in assay buffer. In a 96-well PCR plate, the following are combined in order: 10 μL peptide (120 nM BIM or […]), 10 μL test compound, and 10 μL Bcl protein (0.8 nM Bcl-2/W or 0.4 nM Bcl-XL). The assay plate is incubated in the dark at room temperature for 24 h. The next day, donor beads and acceptor beads are combined, and 5 μL is added to each well. After incubating in the dark for 30 minute, luminescence is measured using a plate reader, and the affinity or degree of inhibition by each test compound is determined.

[1] = system: senescent fibroblasts (SnCs), IMR90 cells; test: Senolytic activity: killing irradiated senescent IMR90 fibroblasts vs replicating or quiescent fibroblasts (CellTiter-Glo); type: cell-based, human; details: for Best SI: specificity for senescent cells vs replicating or quiescent fibroblasts, 1.0 = non-specific; for senolytic activity, potency: result in words
Excerpt: Human fibroblast IMR90 cells can be obtained from the American Type Culture Collection (ATCC®) with the designation CCL-186. The cells are maintained at <75% confluency in DMEM containing FBS and Pen/Strep in an atmosphere of 3% O2, 10% CO2, and ˜95% humidity. The cells are divided into three groups: irradiated cells (cultured for 14 days after irradiation prior to use), proliferating normal cells (cultured at low density for one day prior to use), and quiescent cells (cultured at high density for four day prior to use).
On day 0, the irradiated cells are prepared as follows. IMR90 cells are washed, placed in T175 flasks at a density of 50,000 cells per mL, and irradiated at 10-15 Gy. Following irradiation, the cells are plated at 100 μL in 96-well plates. On days 1, 3, 6, 10, and 13, the medium in each well is aspirated and replaced with fresh medium.
On day 10, the quiescent healthy cells are prepared as follows. IMR90 cells are washed, combined with 3 mL of TrypLE trypsin-containing reagent (Thermofisher Scientific, Waltham, Mass.) and cultured for 5 min until the cells have rounded up and begin to detach from the plate. Cells are dispersed, counted, and prepared in medium at a concentration of 50,000 cells per mL. 100 μL of the cells is plated in each well of a 96-well plate. Medium is changed on day 13.
On day 13, the proliferating healthy cell population is prepared as follows. Healthy IMR90 cells are washed, combined with 3 mL of TrypLE and cultured for 5 minutes until the cells have rounded up and begin to detach from the plate. Cells are dispersed, counted, and prepared in medium at a concentration of 25,000 cells per mL. 100 μL of the cells is plated in each well of a 96-well plate.
On day 14, test Bcl-2 inhibitors or MDM2 inhibitors are combined with the cells as follows. A DMSO dilution series of each test compound is prepared at 200 times the final desired concentration in a 96-well PCR plate. Immediately before use, the DMSO stocks are diluted 1:200 into prewarmed complete medium. Medium is aspirated from the cells in each well, and 100 μL/well of the compound containing medium is added.
Candidate senolytic agents for testing are cultured with the cells for 6 days, replacing the culture medium with fresh medium and the same compound concentration on day 17. Bcl-2 inhibitors like 001967 are cultured with the cells for 3 days. The assay system uses the properties of a thermostable luciferase to enable reaction conditions that generate a stable luminescent signal while simultaneously inhibiting endogenous ATPase released during cell lysis. At the end of the culture period, 100 μL of CellTiter-Glo® reagent (Promega Corp., Madison, Wis.) is added to each of the wells. The cell plates are placed for 30 seconds on an orbital shaker, and luminescence is measured.
Furthermore, even if the compound is potent, it would not be suitable for use as a therapeutic unless it preferentially kills senescent cells with a high degree of selectivity. Accordingly, compounds in the library showing high Bcl binding affinity were further screened for their ability to kill irradiated fibroblasts, in comparison with replicating fibroblasts or fibroblasts that were quiescent (due to confluence) but not senescent.

SMILES | binding affinities (Ki) for the Bcl isoforms (Bcl isoforms) | Best SI [1] | senolytic activity, potency [1]
Cc1c(C(=O)O)c(-c2cccc(N3CCN(c4ccc(NS(=O)(=O)c5ccc(N[C@H](CCN6CCC(O)CC6)CSc6ccccc6)c(S(=O)(=O)C(F)(F)F)c5)cc4)CC3)c2)c(-c2ccc(Cl)cc2)n1C(C)C [BM-962] |  | 18.5 | 
CCn1c(C)c(S(C)(=O)=O)c(-c2cc(F)cc(N3CCN(c4ccc(NS(=O)(=O)c5ccc(N[C@H](CCN6CCC(O)CC6)CSc6ccccc6)c(S(=O)(=O)C(F)(F)F)c5)cc4)CC3)c2)c1-c1ccc(F)cc1 [BM-1192] |  | 60.0 | 
CCn1c(C)c(C(=O)O)c(-c2cccc(N3CCN(c4ccc(NS(=O)(=O)c5ccc(N[C@H](CCN6CCC(O)CC6)CSc6ccccc6)c(S(=O)(=O)C(F)(F)F)c5)cc4)CC3)c2)c1-c1ccc(Cl)cc1 [BM-957] |  | 11.7 | 

Second part, led by results:

binding affinities (Ki) for the Bcl isoforms (Bcl isoforms) | SMILES | Best SI [1] | senolytic activity, potency [1]
nanomole to picomole range | Cc1c(S(C)(=O)=O)c(-c2cc(F)cc(N3CCN(c4ccc(NS(=O)(=O)c5ccc(N[C@H](CCN6CCC(C(=O)O)CC6)CSc6ccccc6)c(S(=O)(=O)C(F)(F)F)c5)cc4)CC3)c2)c(-c2ccc(Cl)cc2)n1C(C)C [BM-1244] | 66.7 | 
nanomole to picomole range | Cc1c(S(C)(=O)=O)c(-c2cc(F)cc(N3CCN(c4ccc(NS(=O)(=O)c5ccc(N[C@H](CCN6CCC(O)CC6)CSc6ccccc6)c(S(=O)(=O)C(F)(F)F)c5)cc4)CC3)c2)c(-c2ccc(F)cc2)n1C(C)C [BM-1195] | 128.7 | potent in the nanomole range
nanomole to picomole range | Cc1c(S(C)(=O)=O)c(-c2cc(F)cc(N3CCN(c4ccc(NS(=O)(=O)c5ccc(N[C@H](CCN6CCC(O)CC6)CSc6ccccc6)c(S(=O)(=O)C(F)(F)F)c5)cc4)CC3)c2)c(-c2ccc(Cl)cc2)n1C(C)C [BM-1197] | 366.7 | potent in the nanomole range
